One assay concerns the target TIPARP (PARP7) (Homo sapiens (Human), UniProt Q7Z3E1). The assay can be described thus: Enzymatic assay for inhibition of PARP7: displacement of biotinylated Probe A (TR-FRET). The class given is binding. Conditions: TR-FRET displacement of Probe A from TIPARP. How it is done: 20 nL of a dose response curve of each test compound was spotted in black 384-well polystyrene proxiplates (Perkin Elmer) using a Mosquito (TTP Labtech). […] Reactions were incubated at 25° C. for an additional 30 min, then read on an Envision plate reader equipped with a LANCE/DELFIA top mirror (Perkin Elmer) using excitation of 320 nm and emission of 615 nm and […] with a 90 μs delay. The ratio of the 665/615 nm emission were calculated for each well to determine the amount of complex of TIPARP and Probe A in each well. […] The Hill Coefficient is normally allowed to float but may also be fixed at 1 in a 3-parameter fit. Y is the % inhibition and X is the compound concentration.

Assay [1] relates to NCI-H1373 lung cancer cells. The assay is described as follows: Inhibition of cancer cell growth in NCI-H1373 cells (FIG. 2). In kind it is cell-based, human.
A further assay deals with 4T1-luc2-1A4 cells. The assay is described as follows: Inhibition of tumor growth, 4T1 murine syngeneic model, subcutaneous dosing. In kind it is in vivo. Conditions: 4T1 orthotopic syngeneic, BALB/c mice; Compound 98 500 mg/kg S.C. QD, Compound 93A 100 mg/kg S.C. BID, 21 days. The source says: (§1) Example G: Inhibition of Tumor Growth by Treatment with PARP7 Inhibitors
For the 4T1 study female BALB/c mice were inoculated orthotopically in the mammary fat pad with 4T1-luc2-1A4 cells for tumor development. Eight days after tumor inoculation, 45 mice with tumor size ranging from 63-88 mm^3 (average tumor size 67 mm^3) were selected and assigned into 3 groups using stratified randomization with 15 mice in each group based upon their tumor volumes. The treatments were started from the next day post randomization (defined randomization day as D0) and were treated with vehicle (0.5% methylcellulose+0.2% Tween 80), Compound 98 (500 mg/kg S.C. QD*21 days), Compound 93A (100 mg/kg S.C. BID*21 days) respectively. The tumor sizes were measured three times per week during the treatment. The entire study was terminated on D20.
(§2) Mean tumor volume and SEM for both studies are plotted. Statistical significance, calculated using two-tailed unpaired t-tests in which each treatment group was compared to vehicle control, is indicated by an asterisk. Statistics were performed on groups with less than 20% animal loss (D21 for CT26, D17 for 4T1).

The subject of another assay is CT26 cells. The assay can be described thus: Inhibition of tumor growth, CT26 murine syngeneic model, subcutaneous dosing. The class given is in vivo. Conditions: BALB/c mice, Compound 98 500 mg/kg S.C. QD, Compound 93A 100 mg/kg S.C. BID, 21 days.
Text: as §1
For the CT26 study BALB/c mice were inoculated subcutaneously at the right flank with CT26 cells for tumor development. Four days after tumor inoculation, 36 mice with tumor size ranging from 40-55 mm^3 (average tumor size 47 mm^3) were selected and assigned into 3 groups using stratified randomization with 12 mice in each group based upon their tumor volumes. The treatments were started from the next day post randomization (defined randomization day as day 0) and were treated with vehicle (0.5% methylcellulose+0.2% Tween 80), Compound 98 (500 mg/kg S.C. QD*21 days), Compound 93A (100 mg/kg S.C. BID*21 days) respectively. The tumor sizes were measured three times per week during the treatment. The entire study was terminated on day 21.
as §2

For assay [2], the system named is CT26 mouse colon cancer cells. The assay can be described thus: Induction of interferon-beta levels in CT26 cells in the presence of STING agonist DMXAA (FIG. 3). The class given is cell-based.
In assay [3] the test system is RAW264.7 mouse macrophages. The assay is described as follows: Induction of interferon-beta levels in RAW264.7 macrophages in the presence of STING agonist DMXAA (FIG. 3). In kind it is cell-based.
Another assay addresses PARP7 (Homo sapiens (Human), UniProt Q7Z3E1). The assay can be described thus: PARP7 inhibition potency (Table A-1). The class given is binding. Conditions: comparison of separated isomers; see Table A-1.

SMILES strings stand for the structures.

Chain of TIPARP (PARP7) (Q7Z3E1 whole entry): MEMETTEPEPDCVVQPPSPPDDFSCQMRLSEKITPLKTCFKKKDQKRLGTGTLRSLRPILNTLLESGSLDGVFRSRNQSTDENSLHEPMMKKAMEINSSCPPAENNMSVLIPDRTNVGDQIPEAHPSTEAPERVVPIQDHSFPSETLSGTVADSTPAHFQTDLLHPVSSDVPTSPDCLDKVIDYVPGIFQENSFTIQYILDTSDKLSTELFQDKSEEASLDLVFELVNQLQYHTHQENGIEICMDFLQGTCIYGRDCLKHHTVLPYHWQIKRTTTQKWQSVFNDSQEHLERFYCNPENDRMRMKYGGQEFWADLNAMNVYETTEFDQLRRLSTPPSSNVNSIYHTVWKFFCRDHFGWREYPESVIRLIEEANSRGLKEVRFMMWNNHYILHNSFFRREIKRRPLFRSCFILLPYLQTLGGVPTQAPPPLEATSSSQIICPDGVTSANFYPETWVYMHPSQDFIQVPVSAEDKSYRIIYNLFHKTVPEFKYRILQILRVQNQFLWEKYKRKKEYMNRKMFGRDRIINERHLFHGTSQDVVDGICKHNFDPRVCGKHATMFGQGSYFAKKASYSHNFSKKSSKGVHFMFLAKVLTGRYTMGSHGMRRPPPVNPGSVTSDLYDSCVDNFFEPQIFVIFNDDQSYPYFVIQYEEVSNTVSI
Chain of PARP7 (Q7Z3E1 whole entry): as above

For `N#Cc1ccc(N2CCN(C(=O)c3ccc(OC[C@H]4c5ccccc5CN4c4cn[nH]c(=O)c4C(F)(F)F)cc3)CC2)nc1` [Example 35B, 6-[4-[(4-[[(1R)-2-[6-oxo-5-(trifluoromethyl)-1,6-dihydropyridazin-4-yl]-2,3-dihydro-1H-isoindol-1-yl]methoxy]phenyl)carbonyl]piperazin-1-yl]pyridine-3-carbonitrile], the IC50 – broadly, the midpoint of a concentration-inhibition curve – at TIPARP (PARP7) was 100 to 1000 nM.
The compound `N#Cc1ccc(N2CCN(C(=O)c3ccnc(OC[C@H]4c5ccccc5CN4c4cn[nH]c(=O)c4C(F)(F)F)c3)CC2)nc1` [Example 36A, 6-[4-[(2-[[(1R)-2-[6-oxo-5-(trifluoromethyl)-1,6-dihydropyridazin-4-yl]-2,3-dihydro-1H-isoindol-1-yl]methoxy]pyridin-4-yl)carbonyl]piperazin-1-yl]pyridine-3-carbonitrile] yielded an IC50 at TIPARP (PARP7) not below 1000 nM.
`N#Cc1ccc(N2CCN(C(=O)c3ccnc(OC[C@@H]4c5ccccc5CN4c4cn[nH]c(=O)c4C(F)(F)F)n3)CC2)nc1` [Example 38A, 6-[4-[(2-[[(1S)-2-[6-Oxo-5-(trifluoromethyl)-1,6-dihydropyridazin-4-yl]-2,3-dihydro-1H-isoindol-1-yl]methoxy]pyrimidin-4-yl)carbonyl]piperazin-1-yl]pyridine-3-carbonitrile] had an IC50 on TIPARP (PARP7) of less than 100 nM.
Regarding `N#Cc1ccc(N2CCN(C(=O)c3cccc(OCCOc4cccc5c4CN(c4cn[nH]c(=O)c4C(F)(F)F)C5)c3)CC2)nc1` [Example 39, 6-[4-([3-[2-([2-[6-Oxo-5-(trifluoromethyl)-1,6-dihydropyridazin-4-yl]-2,3-dihydro-1H-isoindol-4-yl]oxy)ethoxy]phenyl]carbonyl)piperazin-1-yl]pyridine-3-carbonitrile], the “growth of NCI-H1373 lung cancer cells” value in assay [1] is “dose-dependent decrease in growth”.
`N#Cc1ccc(N2CCN(C(=O)c3cncc(OC[C@H]4c5ccccc5CN4c4cn[nH]c(=O)c4C(F)(F)F)n3)CC2)nc1` [Example 72B, 6-[4-[(6-[[(1R)-2-[6-oxo-5-(trifluoromethyl)-1,6-dihydropyridazin-4-yl]-2,3-dihydro-1H-isoindol-1-yl]methoxy]pyrazin-2-yl)carbonyl]piperazin-1-yl]pyridine-3-carbonitrile] gave an IC50 at TIPARP (PARP7) of less than 100 nM.
Compound `O=C(COC[C@@H]1CCCN1c1cn[nH]c(=O)c1C(F)(F)F)N[C@H]1CC[C@H](Nc2ccccn2)CC1` [Example 80A, 2-[[(2S)-1-[6-oxo-5-(trifluoromethyl)-1,6-dihydropyridazin-4-yl]pyrrolidin-2-yl]methoxy]-N-[(1r,4r)-4-[(pyridin-2-yl)amino]cyclohexyl]acetamide] came in with an IC50 at TIPARP (PARP7) of 100 to 1000 nM.
Consider `N#Cc1ccc(N2CCN(C(=O)CCOC[C@@H]3c4ccccc4CN3c3cn[nH]c(=O)c3C(F)(F)F)CC2)nc1` [Example 93A, 6-[4-(3-[[(1S)-2-[6-oxo-5-(trifluoromethyl)-1,6-dihydropyridazin-4-yl]-2,3-dihydro-1H-isoindol-1-yl]methoxy]propanoyl)piperazin-1-yl]pyridine-3-carbonitrile], for which the “growth of NCI-H1373 lung cancer cells” value in assay [1] was “dose-dependent decrease in growth”. In addition, the tumor growth result in the assay with 4T1-luc2-1A4 cells and in the assay on CT26 cells was “significantly reduce tumor growth” in each case.
For the compound `N#Cc1ccc(N2CCN(C(=O)CCOC[C@@H]3CCCN3c3cn[nH]c(=O)c3C(F)(F)F)CC2)nc1` [Example 98, 6-[4-(3-[[(2S)-1-[6-Oxo-5-(trifluoromethyl)-1,6-dihydropyridazin-4-yl]pyrrolidin-2-yl]methoxy]propanoyl)piperazin-1-yl]pyridine-3-carbonitrile], the “growth of NCI-H1373 lung cancer cells” value in assay [1] was “dose-dependent decrease in growth”. The tumor growth entry in the assay on 4T1-luc2-1A4 cells and with CT26 cells was “significantly reduce tumor growth” each time. For the same compound, the “interferon-beta (IFN-β) levels” value in assay [2] and in assay [3] was “induction of interferon-beta (IFN-β) levels” throughout.
For `N#Cc1ccc(N2CCC3C2CCN3C(=O)CCOC[C@@H]2CCCN2c2cn[nH]c(=O)c2C(F)(F)F)nc1` (stereo partly drawn) [Example 110, 6-[4-(3-[[(2S)-1-[6-oxo-5-(trifluoromethyl)-1,6-dihydropyridazin-4-yl]pyrrolidin-2-yl]methoxy]propanoyl)-octahydropyrrolo[3,2-b]pyrrol-1-yl]pyridine-3-carbonitrile], the IC50 at TIPARP (PARP7) was less than 100 nM.
As for `N#Cc1ccc(N2CCN(C(=O)C[C@H]3CC[C@@H]([C@@H]4CCCN4c4cn[nH]c(=O)c4C(F)(F)F)O3)CC2)nc1` [Example 141B, 6-(4-[2-[(2R,5S)-5-[(2S)-1-[6-oxo-5-(trifluoromethyl)-1,6-dihydropyridazin-4-yl]pyrrolidin-2-yl]oxolan-2-yl]acetyl]piperazin-1-yl)pyridine-3-carbonitrile], at PARP7, the “relative potency of the enantiomers” value is on record as “more potent enantiomer”.
In the case of `N#Cc1ccc(N2CCN(C(=O)CNCC[C@H]3c4ccccc4CN3c3cn[nH]c(=O)c3C(F)(F)F)CC2)nc1` [Example 144A, 6-[4-[2-([2-[(1S)-2-[6-oxo-5-(trifluoromethyl)-1,6-dihydropyridazin-4-yl]-2,3-dihydro-1H-isoindol-1-yl]ethyl]amino)acetyl]piperazin-1-yl]pyridine-3-carbonitrile], the IC50 at TIPARP (PARP7) is less than 100 nM.
Still for that read-out and setting: the figure for `O=C(CCOCCNc1cn[nH]c(=O)c1C(F)(F)F)N1CCN(c2ccc(Cl)cn2)CC1` [Example 506, 5-[(2-[3-[4-(5-Chloropyridin-2-yl)piperazin-1-yl]-3-oxopropoxy]ethyl)amino]-4-(trifluoromethyl)-2,3-dihydropyridazin-3-one] is less than 100 nM.
As for `CC(C)(COCCC(=O)N1CCN(c2ccc(C#N)cn2)CC1)Nc1cn[nH]c(=O)c1C(F)(F)F` [Example 519, 6-[4-[3-(2-Methyl-2-[[6-oxo-5-(trifluoromethyl)-1,6-dihydropyridazin-4-yl]amino]propoxy)propanoyl]piperazin-1-yl]pyridine-3-carbonitrile], at TIPARP (PARP7), the IC50 was less than 100 nM.
Same read-out and setting: in the case of `O=C(CCOCCOc1cn[nH]c(=O)c1Cl)N1CCN(c2ccc(Cl)cn2)CC1` [Example 523, 4-Chloro-5-(2-[3-[4-(5-chloropyridin-2-yl)piperazin-1-yl]-3-oxopropoxy]ethoxy)-2,3-dihydropyridazin-3-one] it was less than 100 nM; in that of `N#Cc1ccc(N2CCN(C(=O)CCO[C@H]3Cc4ccccc4[C@@H]3Nc3cn[nH]c(=O)c3C(F)(F)F)CC2)nc1` [Example 537A], not below 1000 nM.
Still for that read-out and setting: in the case of `COC[C@@H](COc1cn[nH]c(=O)c1C(F)(F)F)OCCC(=O)N1CCN(c2ncc(Cl)cn2)CC1` [Example 560A, 5-[(2S)-2-[3-[4-(5-chloropyrimidin-2-yl)piperazin-1-yl]-3-oxopropoxy]-3-methoxypropoxy]-4-(trifluoromethyl)-2,3-dihydropyridazin-3-one] it was less than 100 nM.
Turning to `COC[C@H](COc1cn[nH]c(=O)c1C(F)(F)F)OCCC(=O)N1CCN(c2ncc(Cl)cn2)CC1` [Example 560B, 5-[(2R)-2-[3-[4-(5-chloropyrimidin-2-yl)piperazin-1-yl]-3-oxopropoxy]-3-methoxypropoxy]-4-(trifluoromethyl)-2,3-dihydropyridazin-3-one], the IC50 on TIPARP (PARP7) lay within 100 to 1000 nM.

Source of the values: patent publication US10870641B2, “Pyridazinones as PARP7 inhibitors” (Ribon Therapeutics Inc., priority 2018, dated 2020).
